Counter-ions that a name gives are not always drawn. Like-named read-outs stand apart in the source and are kept apart here. Each block holds one molecule with its values, some of them ahead of it.
Key:
human His-PIM2 [23-299] = target: T1, human His-PIM2 [23-299] (Homo sapiens, UniProt Q9P1W9); experiment: PIM2 in-vitro mobility shift assay (Caliper LC3000, FL-Ahx-Bad phosphorylation); assay type: biochemical; settings: 1.5 h; percent inhibition at 0.3 uM compound; read-out: PIM2 % I at 0.3 uM
T1 construct: purified human His-PIM2 [23-299] enzyme; His (N); host or cells: E. coli
T1 sequence (Q9P1W9 23-299): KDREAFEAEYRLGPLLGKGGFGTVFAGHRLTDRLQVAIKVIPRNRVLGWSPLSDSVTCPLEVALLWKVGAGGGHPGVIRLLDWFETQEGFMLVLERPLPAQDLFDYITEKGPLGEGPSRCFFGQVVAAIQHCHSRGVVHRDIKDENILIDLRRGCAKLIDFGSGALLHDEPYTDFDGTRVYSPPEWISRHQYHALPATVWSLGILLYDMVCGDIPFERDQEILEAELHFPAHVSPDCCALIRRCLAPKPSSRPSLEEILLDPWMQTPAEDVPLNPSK
Excerpt: PIM2 In-Vitro Mobility Shift Assay
(§1) One may determine the activity of purified human His-PIM2 [23-299] enzyme in-vitro using a mobility shift assay on a Caliper LC3000 reader (Caliper, Mass.), which measures fluorescence of a phosphorylated and unphosphorylated FL-Ahx-Bad (FITC-(AHX)RSRHSSYPAGT-COOH, Primm 200606-00289, Primm Biotech, Mass.) and calculates a ratiometric value to determine percent turnover. One may express PIM2 (produced at AstraZeneca, R&D Boston) in E. coli cells with a typical yield of >90% purity.
One determines phosphorylation of the FL-Ahx-Bad in the presence and absence of the compound of interest. One preincubates 5 uL of Enzyme/Substrate/adenosine triphosphate (ATP) mix consisting of 2.4 nM […], 3.6 uM FL-Ahx-Bad, and 12 uM ATP in 1.2× buffer with 2 ul of compound for 20 minutes at 25° C. One initiates reactions with 5 uL of Metal mix consisting of 24 mM MgCl2 in 1.2× buffer and incubates at 25° C. for 90 minutes. One stops reactions by addition of 5 uL of Stop mix consisting of 100 mM HEPES, 121 mM ethylenediamine tetraacetic acid, 0.8% Coatin Reagent 3 (Caliper, Mass.), and 0.01% Tween. One detects phosphorylated and unphosphorylated substrate by a Caliper LC3000 reader (Caliper, Mass.) in the presence of separation buffer consisting of 100 mM HEPES, 16 mM ethylenediamine tetraacetic acid, 0.1% Coatin Reagent 3 (Caliper, Mass.), 0.015% Brij-35, 5% DMSO, and 5.6 mM MgCl2. One may use the following separation conditions for a Caliper LC3000: −1.0 PSI, −2000 V upstream voltage, −400 V downstream voltage, 0.2 second sample sip, 45 second post sip, 10% laser strength.

human His-PIM1 [2-313] = target: T2, human His-PIM1 [2-313] (Homo sapiens, UniProt P11309); experiment: PIM1 in-vitro mobility shift assay (Caliper LC3000, FL-Ahx-Bad phosphorylation); assay type: biochemical; settings: 1.5 h, read-out: PIM1 % I at 0.3 uM
T2 construct: purified human His-PIM1 [2-313] enzyme; His (N); purchased University of Dundee, Scotland; host or cells: baculovirus system
T2 sequence (P11309 2-313): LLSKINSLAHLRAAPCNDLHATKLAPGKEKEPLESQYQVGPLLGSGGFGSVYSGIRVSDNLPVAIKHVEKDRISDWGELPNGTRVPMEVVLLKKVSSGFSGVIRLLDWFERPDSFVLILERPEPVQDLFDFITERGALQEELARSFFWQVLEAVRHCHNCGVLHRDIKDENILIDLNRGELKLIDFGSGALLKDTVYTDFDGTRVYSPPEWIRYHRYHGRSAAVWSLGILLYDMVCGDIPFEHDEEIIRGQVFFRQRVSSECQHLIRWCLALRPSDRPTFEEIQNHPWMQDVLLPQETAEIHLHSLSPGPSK
Excerpt: PIM1 In-Vitro Mobility Shift Assay
as §1, with “His-PIM1 [2-313]” for “His-PIM2 [23-299]”, “PIM1 (University of Dundee, Scotland)” for “PIM2 (produced at AstraZeneca, R&D Boston)”, “baculovirus system” for “E. coli cells”, “>85%” for “>90%”
One determines phosphorylation of the FL-Ahx-Bad in the presence and absence of the compound of interest. One preincubates 5 µl of Enzyme/Substrate/adenosine triphosphate (ATP) mix consisting of 2.4 nM PIM1, 3.6 uM FL-Ahx-Bad, and 240 uM ATP in 1.2× buffer with 2 ul of compound for 20 minutes at 25° C. One initiates reactions with 5 ul of Metal mix consisting of 24 mM MgCl2 in 1.2× buffer and incubated at 25° C. for 90 minutes and stops the reactions by addition of 5 ul of Stop mix consisting of 100 mM HEPES, 121 mM ethylenediamine tetraacetic acid, 0.8% Coatin Reagent 3 (Caliper, Mass.), and 0.01% Tween. One detects phosphorylated and unphosphorylated substrate by a Caliper LC3000 reader (Caliper, Mass.) in the presence of separation buffer consisting of 100 mM HEPES, 16 mM ethylenediamine tetraacetic acid, 0.1% Coatin Reagent 3 (Caliper, Mass.), 0.015% Brij-35, 5% DMSO, and 5.6 mM MgCl2. One may use the following separation conditions for a Caliper LC3000: −1.0 PSI, −2000 V upstream voltage, −400 V downstream voltage, 0.2 second sample sip, 45 second post sip, 10% laser strength.
The table 1 below provides the percent inhibition of PIM1 at 0.3 micromolar for Examples provided herein. Several examples were tested more than once. Variations in the experimental outcomes, negative values, or values over 100% inhibition are presumably due to experimental error inherent in the assay.

[1] = percent inhibition at 0.3 uM compound

SMILES: Cn1ccc2cc(/C=C3\SC(=O)NC3=O)ccc21 [Example 76, (5Z)-5-[(1-methyl-1H-indol-5-yl)methylene]-1,3-thiazolidine-2,4-dione]
inhibition at 0.3 µM (human His-PIM2 [23-299]): 27.6%
inhibition at 0.3 µM (human His-PIM1 [2-313]; [1]): 59.6%

SMILES: NCCCN[C@H]1CCN(c2c(Cl)cccc2/C=C2\SC(=O)NC2=O)C1 [Example 125]
inhibition at 0.3 µM (human His-PIM2 [23-299]): > 95%
inhibition at 0.3 µM (human His-PIM1 [2-313]; [1]): > 95%

SMILES: Cn1nnc2cc(/C=C3\SC(=O)NC3=O)ccc21 [Example 73, (5Z)-5-[(1-methyl-1H-1,2,3-benzotriazol-5-yl)methylene]-1,3-thiazolidine-2,4-dione]
inhibition at 0.3 µM (human His-PIM2 [23-299]): < 5%
inhibition at 0.3 µM (human His-PIM1 [2-313]; [1]): < 5%

SMILES: NC(=O)NCC(=O)N[C@H]1CCN(c2c(Cl)cccc2/C=C2\SC(=O)NC2=O)C1 [Example 138]
inhibition at 0.3 µM (human His-PIM2 [23-299]): 63.2%
inhibition at 0.3 µM (human His-PIM1 [2-313]; [1]): 87.9%

SMILES: COc1cc(/C=C2\SC(=O)NC2=O)c(N2CCC(O)CC2)cc1OC [Example 42, (5Z)-5-[2-(4-hydroxypiperidine-1-yl)-4,5-dimethoxybenzylidene]-1,3-thiazolidine-2,4-dione]
inhibition at 0.3 µM (human His-PIM2 [23-299]): 23.3%
inhibition at 0.3 µM (human His-PIM1 [2-313]; [1]): 58.8%

SMILES: Cn1ccnc1C(=O)N[C@H]1CCN(c2c(Cl)cccc2/C=C2\SC(=O)NC2=O)C1 [Example 135, (S,Z)-N-(1-(2-chloro-6-((2,4-dioxothiazolidin-5-ylidene)methyl)phenyl)pyrrolidin-3-yl)-1-methyl-1H-imidazole-2-carboxamide]
inhibition at 0.3 µM (human His-PIM2 [23-299]): 10.8%
inhibition at 0.3 µM (human His-PIM1 [2-313]; [1]): 42.5%

SMILES: CCN(CC)CCOc1ccccc1/C=C1\SC(=O)NC1=O [Example 64, (Z)-5-(2-(2-(diethylamino)ethoxy)benzylidene)thiazolidine-2,4-dione]
inhibition at 0.3 µM (human His-PIM2 [23-299]): 25.7%
inhibition at 0.3 µM (human His-PIM1 [2-313]; [1]): 86.5%

SMILES: N[C@@H]1CCCN(c2c(Cl)cccc2/C=C2\SC(=O)NC2=O)C1 [Example 122D, (R,Z)-5-(2-(3-aminopiperidin-1-yl)-3-chlorobenzylidene)thiazolidin-2,4-dione hydrochloride]
inhibition at 0.3 µM (human His-PIM2 [23-299]): > 95%
inhibition at 0.3 µM (human His-PIM1 [2-313]; [1]): > 95%

SMILES: O=C1NC(=O)/C(=C/c2cccc(Cl)c2N2CCC[C@@H](NCCC(F)(F)F)C2)S1 [Example 149]
inhibition at 0.3 µM (human His-PIM2 [23-299]): 75.4%
inhibition at 0.3 µM (human His-PIM1 [2-313]; [1]): > 95%

SMILES: CN(C)C1CCN(c2ccc(C(N)=O)cc2/C=C2\SC(=O)NC2=O)C1 (centres unmarked) [Example 57, (Z)-4-(3-(dimethylamino)pyrrolidin-1-yl)-3-((2,4-dioxothiazolidin-5-ylidene)methyl)benzamide hydrochloride]
inhibition at 0.3 µM (human His-PIM2 [23-299]): 42.6%
inhibition at 0.3 µM (human His-PIM1 [2-313]; [1]): 53.3%

SMILES: CN(C)C1CCN(c2ccccc2/C=C2\SC(=O)NC2=O)C1 (centres unmarked) [Example 48, (5Z)-5-{2-[3-(dimethylamino)pyrrolidin-1-yl]benzylidene}-1,3-thiazolidine-2,4-dione]
inhibition at 0.3 µM (human His-PIM2 [23-299]): 41.3%
inhibition at 0.3 µM (human His-PIM1 [2-313]; [1]): 84.4%

SMILES: CN(C)C(=O)CCC(=O)N[C@H]1CCN(c2c(Cl)cccc2/C=C2\SC(=O)NC2=O)C1 [Example 144]
inhibition at 0.3 µM (human His-PIM2 [23-299]): 21.2%
inhibition at 0.3 µM (human His-PIM1 [2-313]; [1]): 63.2%

SMILES: N[C@@H]1CCCN(c2c(Br)cccc2/C=C2\SC(=O)NC2=O)C1 [Example 122F, (R,Z)-5-(2-(3-aminopiperidin-1-yl)-3-bromobenzylidene)thiazolidine-2,4-dione hydrochloride]
inhibition at 0.3 µM (human His-PIM2 [23-299]): > 95%
inhibition at 0.3 µM (human His-PIM1 [2-313]): > 95%

SMILES: O=C1NC(=O)/C(=C/c2cc(C(F)(F)F)cc(Cl)c2N2CCN(CCN3CCOCC3)CC2)S1 [Example 20]
inhibition at 0.3 µM (human His-PIM2 [23-299]): 19.1%
inhibition at 0.3 µM (human His-PIM1 [2-313]; [1]): 86.5%

SMILES: COc1cccc(/C=C2\SC(=O)NC2=O)c1N1CCN(C(=O)CCN)CC1 [Example 94, (Z)-5-(2-(4-(3-aminopropanoyl)piperazin-1-yl)-3-methoxybenzylidene)thiazolidine-2,4-dione hydrochloride]
inhibition at 0.3 µM (human His-PIM2 [23-299]): > 95%
inhibition at 0.3 µM (human His-PIM1 [2-313]; [1]): > 95%

SMILES: NCCCN1CCN(c2ccccc2/C=C2\SC(=O)NC2=O)CC1 [Example 127]
inhibition at 0.3 µM (human His-PIM2 [23-299]): > 95%
inhibition at 0.3 µM (human His-PIM1 [2-313]; [1]): > 95%

SMILES: O=C1NC(=O)/C(=C/c2cc(C(F)(F)F)cc(Cl)c2N2CCN(Cc3ccc4c(c3)OCO4)CC2)S1 [Example 8]
inhibition at 0.3 µM (human His-PIM2 [23-299]): < 5%
inhibition at 0.3 µM (human His-PIM1 [2-313]; [1]): 16.3%

SMILES: CN(C)C1CCN(c2c(Cl)cc(C(F)(F)F)cc2/C=C2\SC(=O)NC2=O)CC1 [Example 24]
inhibition at 0.3 µM (human His-PIM2 [23-299]): 44.3%
inhibition at 0.3 µM (human His-PIM1 [2-313]; [1]): > 95%

SMILES: N[C@H]1CCN(c2cc(Cl)ccc2/C=C2\SC(=O)NC2=O)C1 [Example 85, (S,Z)-5-(2-(3-aminopyrrolidin-1-yl)-4-chlorobenzylidene)thiazolidine-2,4-dione hydrochloride]
inhibition at 0.3 µM (human His-PIM2 [23-299]): 82.4%
inhibition at 0.3 µM (human His-PIM1 [2-313]; [1]): > 95%

SMILES: COc1cc(/C=C2\SC(=O)NC2=O)c(-c2cccnc2)cc1OC [Example 65, (Z)-5-(4,5-dimethoxy-2-(pyridin-3-yl)benzylidene)thiazolidine-2,4-dione]
inhibition at 0.3 µM (human His-PIM2 [23-299]): 18.9%
inhibition at 0.3 µM (human His-PIM1 [2-313]; [1]): 45.3%

SMILES: COc1cc(/C=C2\SC(=O)NC2=O)c(N2CC[C@@H](N)C2)cc1OC [Example 100, (R,Z)-5-(2-(3-aminopyrrolidin-1-yl)-4,5-dimethoxybenzylidene)thiazolidine-2,4-dione hydrochloride]
inhibition at 0.3 µM (human His-PIM2 [23-299]): 93.9%
inhibition at 0.3 µM (human His-PIM1 [2-313]; [1]): 93%

SMILES: COc1cccc(/C=C2\SC(=O)NC2=O)c1N1C[C@@H](C)N[C@@H](C)C1 [Example 35, (Z)-5-(2-((3S,5R)-3,5-dimethylpiperazin-1-yl)-3-methoxybenzylidene)thiazolidine-2,4-dione]
inhibition at 0.3 µM (human His-PIM2 [23-299]): < 5%
inhibition at 0.3 µM (human His-PIM1 [2-313]; [1]): < 5%

Other lines, results leading:

inhibition at 0.3 µM (human His-PIM2 [23-299]): > 95%
inhibition at 0.3 µM (human His-PIM1 [2-313]; [1]): > 95%
SMILES: CC1CCN(c2c(Cl)cccc2/C=C2\SC(=O)NC2=O)CC1N (centres unmarked) [Example 122V, (Z)-5-(2-(3-amino-4-mnethylpiperidin-1-yl)-3-chlorobenzylidene)thiazolidine-2,4-dione hydrochloride]

inhibition at 0.3 µM (human His-PIM2 [23-299]): 80.9%
inhibition at 0.3 µM (human His-PIM1 [2-313]; [1]): > 95%
SMILES: CN(C)[C@H]1CCN(c2ccc(Br)cc2C=C2SC(=O)NC2=O)C1 [Example 84M, (S)-5-(5-bromo-2-(3-(dimethylamino)pyrrolidin-1-yl)benzylidene)thiazolidine-2,4-dione]

inhibition at 0.3 µM (human His-PIM2 [23-299]): 40.4%
inhibition at 0.3 µM (human His-PIM1 [2-313]; [1]): 93.3%
SMILES: Cc1ccc(C=C2SC(=O)NC2=O)c(N2CC[C@H](N(C)C)C2)c1 [Example 84J, (S)-5-(2-(3-(dimethylamino)pyrrolidin-1-yl)-4-methylbenzylidene)thiazolidine-2,4-dione]

inhibition at 0.3 µM (human His-PIM2 [23-299]): > 95%
inhibition at 0.3 µM (human His-PIM1 [2-313]; [1]): > 95%
SMILES: N[C@@H]1CCCN(c2c(/C=C3\SC(=O)NC3=O)cccc2OC2CCCCC2)C1 [Example 122L, hydrochloride]

inhibition at 0.3 µM (human His-PIM2 [23-299]): > 95%
inhibition at 0.3 µM (human His-PIM1 [2-313]; [1]): > 95%
SMILES: NC(=O)c1ccc(N2CCC[C@@H](N)C2)c(/C=C2\SC(=O)NC2=O)c1 [Example 122AE, (R,Z)-4-(3-aminopiperidin-1-yl)-3-((2,4-dioxothiazolidin-5-ylidene)methyl)benzamide hydrochloride]

inhibition at 0.3 µM (human His-PIM2 [23-299]): < 5%
inhibition at 0.3 µM (human His-PIM1 [2-313]; [1]): 27.8%
SMILES: O=C1NC(=O)/C(=C/c2cccc(OCCCN3CCCCC3)c2)S1 [Example 84D, (Z)-5-(3-(3-(piperidin-1-yl)propoxy)benzylidene)thiazolidine-2,4-dione]

Reference: patent publication US8901307B2, “Chemical compounds 251” (AstraZeneca AB, priority 2008, dated 2014)
